Several values for one entry are separate records, joined by “and”; a condition that tells them apart may be missing. Identical values can stand only once. Entries after “also recorded” stand apart in the source; their conditions may differ. Like-named read-outs stand apart in the source and are kept apart here.
Assays:
spinal alpha-2 receptors = type: in vivo, rat
Sprague-Dawley rats [1] = assay: Effect on analgesia produced by a single spinal dose of morphine (tail flick and paw pressure tests); type: in vivo, rat
Sprague-Dawley rats [2] = assay: Acute tolerance to spinal morphine: three successive intrathecal injections at 90 minute intervals, cumulative morphine dose-response curves 24 hours later (tail flick and paw pressure tests); type: in vivo, rat; details: for development of acute tolerance to morphine: ultra-low dose administration, intrathecal
mice = details: cited from earlier work
Sprague-Dawley rats [3] = assay: Chronic tolerance to spinal morphine: daily intrathecal injection for 5 days, cumulative dose-response curves on day 6 (tail flick and paw pressure tests); type: in vivo, rat
Sprague-Dawley rats [4] = assay: Reversal of pre-existing morphine analgesic tolerance by ultra-low dose atipemazole (tail flick and paw pressure tests)
mouse = details: in vivo; cited from earlier work
[5] = idazoxan 0.08 ng with morphine 15 μg intrathecal
[6] = idazoxan ultra-low doses (0.008, 0.016, 0.08 ng) with morphine 15 μg x 3
[7] = mirtazapine 2 μg with clonidine 13.3 μg intrathecal
[8] = mirtazapine 0.02 ng co-injection with morphine 15 μg x 3
[9] = mirtazapine 0.02 ng with morphine 15 μg x 3
[10] = single mirtazapine exposure 0.02 ng 30 minutes prior to repeated morphine
[11] = group receiving repeated morphine injections (15 μg x 3) vs saline-treated control
[12] = saline-treated control group, cumulative intrathecal dose-response curve 24 hours after treatment
[13] = group receiving chronic morphine alone (15 μg for 10 days)
[14] = group receiving morphine (15 μg for 10 days) with atipemazole 0.8 ng from day 6 for 5 days

With `Clc1cccc(Cl)c1N=C1NCCN1` [clonidine] the “analgesic response to clonidine, paw pressure test” value (spinal alpha-2 receptors; rat, in vivo) was “lesser effect” and the “analgesic response to clonidine, tail flick test” value (spinal alpha-2 receptors; rat, in vivo) was “maximal analgesic response”.
For `c1ccc2c(c1)OCC(C1=NCCN1)O2` (centres unmarked) [idazoxan], the “effect on morphine analgesia, both tail flick and paw pressure tests” value (Sprague-Dawley rats [1]; [5]) was “significantly extended morphine analgesia”, the “effect on peak morphine analgesia, paw pressure test” value (Sprague-Dawley rats [1]; [5]) was “augmented peak morphine analgesia” and the “effect on peak clonidine analgesia, tail flick test” value (spinal alpha-2 receptors; idazoxan 10 μg with clonidine 13.3 μg intrathecal) was “decreased significantly”. The “effect on the shift of the morphine dose-response curve, both tail flick and paw pressure tests” value (Sprague-Dawley rats [2]; idazoxan 0.008 ng, 0.016 ng with morphine 15 μg x 3) was “prevented the rightward shift”, the “effect on the increase in morphine ED50, both tail flick and paw pressure tests” value (Sprague-Dawley rats [2]; idazoxan 0.008, 0.016 and 0.08 ng co-injection with morphine 15 μg x 3) was “prevented the increase in ED50” and the “analgesic response to repeated administration alone” value (Sprague-Dawley rats [2]; idazoxan alone at 0.008 and 0.016 ng, injected at 90 minute intervals) was “no significant analgesic response”. The “effect on peak morphine analgesia, tail flick test” value (Sprague-Dawley rats [2]; idazoxan lowest dose 0.008 ng with morphine 15 μg x 3) was “reduced the peak morphine analgesia”, the “effect on the decline of morphine analgesia, paw pressure test” value (Sprague-Dawley rats [2]; [6]) was “arrested the decline of the analgesic effect” and the “effect on the decline of morphine analgesia, tail flick test” value (Sprague-Dawley rats [2]; [6]) was “less effective at arresting the decline”. For the same compound, the “development of acute tolerance to morphine” value (Sprague-Dawley rats [2]) was “very effectively inhibit”.
For `COCCc1ccc(OCC(O)CNC(C)C)cc1` (centres unmarked) [metoprolol], the “development of tolerance to morphine analgesia” value (shortened to “development of tolerance”) (mice) is listed as “suppress the development of tolerance”.
In the case of `CN1CCN2c3ncccc3Cc3ccccc3C2C1` (centres unmarked) [mirtazapine], the “effect on peak morphine analgesia, tail flick test” value (Sprague-Dawley rats [1]; mirtazapine 0.2 ng with morphine 15 μg intrathecal) is reported as “reduced the peak morphine analgesia”, the “effect on morphine analgesia, paw pressure test” value (Sprague-Dawley rats [1]; mirtazapine 0.02 and 0.2 ng with morphine 15 μg intrathecal) is reported as “significantly extended morphine analgesia” and the “effect on duration of morphine analgesia, tail flick test” value (Sprague-Dawley rats [1]; mirtazapine 0.02 and 0.2 ng with morphine 15 μg intrathecal, particularly at 0.02 ng) is reported as “extended morphine analgesia”. The “effect on clonidine analgesia, paw pressure test” value (spinal alpha-2 receptors; 10 μg with clonidine 13.3 μg intrathecal (FIG. 28B)) was “almost abolished”, the “effect on clonidine analgesia, paw pressure test” value (spinal alpha-2 receptors; [7]) was “almost abolished” and the “effect on peak clonidine analgesia, tail flick test” value (spinal alpha-2 receptors; [7]) was “decreased significantly”. The “effect on the increase in morphine ED50, paw pressure test” value (Sprague-Dawley rats [2]; [8]) was “completely prevented the increase in ED50”, the “effect on the increase in morphine ED50, tail flick test” value (Sprague-Dawley rats [2]; [8]) was “partially prevented the increase in ED50” and the “effect on peak morphine analgesia, tail flick test” value (Sprague-Dawley rats [2]; [9]) was “reduced the peak morphine analgesia”. The “effect on the decline of morphine analgesia, paw pressure test” value (Sprague-Dawley rats [2]; [9]) was “arrested the decline of the analgesic effect”, the “effect on the decline of morphine analgesia, tail flick test” value (Sprague-Dawley rats [2]; [9]) was “less effective at arresting the decline” and the “effect on the shift of the morphine dose-response curve, paw pressure test” value (Sprague-Dawley rats [2]; [9]) was “prevented the rightward shift”. For the same compound, the “morphine dose-response curves of morphine and morphine-mirtazapine groups, tail flick test” value (Sprague-Dawley rats [2]; [9]) was “showed an overlap at upper dose range of the opioid agonist”, the “prevention of the right shift of the morphine dose response curve, paw pressure vs tail flick test” value (Sprague-Dawley rats [2]; single mirtazapine dose 0.02 ng 30 minutes prior to morphine 15 μg x 3) was “more effective in the paw pressure test at preventing the right shift” and the “effect on the increase in morphine ED50, paw pressure test” value (Sprague-Dawley rats [2]; [10]) was “completely prevented the increase in ED50”. For the same compound, the “effect on the increase in morphine ED50, tail flick test” value (Sprague-Dawley rats [2]; [10]) was “partially prevented the increase in ED50” and the “development of acute tolerance to morphine” value (Sprague-Dawley rats [2]) was “very effectively inhibit”.
In the case of `CN1CC[C@]23c4c5ccc(O)c4O[C@H]2[C@@H](O)C=C[C@H]3[C@H]1C5` [morphine], the “time of peak analgesia after a single dose of morphine” value (Sprague-Dawley rats [1]; morphine 15 μg intrathecal, tail flick and paw pressure tests) is reported as 30 min, the “increase in morphine ED50 values, both tests” value (Sprague-Dawley rats [3]; chronic treatment with morphine 15 μg/day for 5 days) is reported as about 8 fold and the “ED50 values for morphine in the control group” value (Sprague-Dawley rats [3]; group that had received atipemazole alone (0.8 ng/day) for 5 days, day 6, tail flick and paw pressure tests) is reported as “approximately 5 μg”. The “time course of analgesic response on day 5” value (Sprague-Dawley rats [3]; morphine 15 μg alone at conclusion of chronic treatment) was “drastically reduced”, the “analgesic response to morphine on day 1” value (Sprague-Dawley rats [3]; morphine 15 μg intrathecal, 30 minutes after administration) was “maximal level” and the “effect of morphine at 60 minutes post injection, both tests” value (Sprague-Dawley rats [3]; morphine 15 μg/day alone) was “very much reduced”. For the same compound, the “cumulative morphine dose-response curve on day 6 after chronic morphine treatment” value (Sprague-Dawley rats [3]; morphine 15 μg/day for 5 days) was “rightward shift”, the “magnitude of morphine effect with daily drug administration” value (Sprague-Dawley rats [3]; morphine 15 μg/day intrathecal for 5 days, 30 minutes after administration) was “progressively declined towards baseline value by day 5” and the “decline of the analgesic effect of morphine observed after the first injection, at the end of the 240 minute test period” value (Sprague-Dawley rats [2]; 3 successive doses of morphine 15 μg intrathecal at 90 minute intervals) was about 80%. For the same compound, the “increase in morphine ED50, paw pressure test” value (Sprague-Dawley rats [2]; [11]) was 4 fold, the “increase in morphine ED50, tail flick test” value (Sprague-Dawley rats [2]; [11]) was about 5 fold and the “cumulative morphine dose-response curve 24 hours after repeated morphine injections” value (Sprague-Dawley rats [2]; morphine 15 μg x 3 at 90 minute intervals, relative to saline treatment) was “shifted to the right; also recorded: parallel right shift”. The “ED50 value of morphine, paw pressure test” value (Sprague-Dawley rats [2]; [12]) was ~7 µg and ~8 µg, the “ED50 value of morphine, tail flick test” value (Sprague-Dawley rats [2]; [12]) was about 5 µg and the “morphine ED50, paw pressure test” value (Sprague-Dawley rats [4]; [13]) was about 48 µg. The “morphine ED50, tail flick test” value (Sprague-Dawley rats [4]; [13]) was about 47 µg, the “morphine ED50, paw pressure test” value (Sprague-Dawley rats [4]; [14]) was about 8 µg and the “morphine ED50, tail flick test” value (Sprague-Dawley rats [4]; [14]) was about 6 µg. The “acute morphine dose-response curve relative to morphine and atipemazole group” value (Sprague-Dawley rats [4]; morphine 15 μg alone for 10 days, day 11) was “displaced to the right”.
In the case of `C=CCN1CC[C@]23c4c5ccc(O)c4O[C@H]2C(=O)CC[C@@]3(O)[C@H]1C5` [naloxone], the “effect on alpha-2 receptor agonist analgesia” value (mouse) is listed as “does not affect”.
In the case of `Cc1ccc(N(CC2=NCCN2)c2cccc(O)c2)cc1` [phentolamine], the “development of tolerance” value (mice) is listed as “suppress the development of tolerance”.
In the case of `COc1cc2nc(N3CCN(C(=O)c4ccco4)CC3)nc(N)c2cc1OC` [prazoin], the “development of tolerance” value (mice) is given as “suppress the development of tolerance”.
In the case of `CC(C)NCC(O)COc1cccc2ccccc12` (centres unmarked) [propranolol], the “development of tolerance” value (mice) is listed as “suppress the development of tolerance”.

— patent US20070060501A1 (priority 2005, published 2007)
